In article PMC2375285, “Inhibition of all-TRANS-retinoic acid metabolism by R116010 induces antitumour activity” (British Journal of Cancer, 2002):

Columns and labels:
[1] = test system: androgen-independent rat prostatic Dunning R3327/PIF-1 carcinoma cells; set-up: method as in Van Ginckel et al, 1999; conditions: in vivo; ref Van Ginckel et al, 1999; cited from earlier work
Lewis lung (3LL) tumours = test system: Lewis lung (3LL) tumours; set-up: method as in Smets et al, manuscript in preparation; conditions: in vivo; ref Smets et al, manuscript in preparation; cited from earlier work
CYP26A1 = molecular target: T1, CYP26A1 (Homo sapiens, UniProt O43174); assay: RA 4-hydroxylase in T47D human breast cancer microsomes; format: biochemical
T1 construct: microsomes of T47D human breast cancer cells that were pretreated for 16 h with 1 μM RA to induce RA metabolism; endogenous in cells; host or cells: T47D human breast cancer cells, pretreated with 1 μM RA for 16 h; microsomal fraction
T1 sequence (O43174 1-497): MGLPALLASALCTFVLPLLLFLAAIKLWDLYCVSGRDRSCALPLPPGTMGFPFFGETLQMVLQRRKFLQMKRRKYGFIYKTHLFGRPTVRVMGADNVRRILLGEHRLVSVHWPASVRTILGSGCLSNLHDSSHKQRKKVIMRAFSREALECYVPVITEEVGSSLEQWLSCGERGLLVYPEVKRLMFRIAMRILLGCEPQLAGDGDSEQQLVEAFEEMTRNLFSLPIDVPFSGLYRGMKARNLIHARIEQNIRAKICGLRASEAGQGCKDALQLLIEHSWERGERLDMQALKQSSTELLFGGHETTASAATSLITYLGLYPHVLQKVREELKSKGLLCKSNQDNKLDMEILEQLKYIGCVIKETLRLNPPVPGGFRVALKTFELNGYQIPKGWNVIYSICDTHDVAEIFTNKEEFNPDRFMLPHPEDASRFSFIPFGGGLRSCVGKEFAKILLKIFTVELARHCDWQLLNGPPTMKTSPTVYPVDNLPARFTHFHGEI
Procedure: (§1) Metabolism of RA by CYP26A1 was measured in microsomes of T47D human breast cancer cells that were pretreated for 16 h with 1 μM RA to induce RA metabolism. Microsomes were prepared exactly as described by [Han and Choi (1996)], and RA metabolism was measured as described by [Van Wauwe et al (1994)]. The conversion of androstenedione to estrone by aromatase (CYP19) in human placental microsomes, the conversion of 17-hydroxy-20-dihydroprogesterone to testosterone by 17,20-lyase (CYP17) in rat testicular S10 fractions, and the 2α-, 7α-, 6β-, and 16β-hydroxylation of testosterone (CYP2C11, CYP2A1, CYP3A, CYP2B1/2) in rat liver microsomes were carried out as described ([Vanden Bossche et al, 1990]).

[2] = test system: RA metabolism in intact T47D cells; assay: Microcolumn assay for RA metabolism in intact T47D cells; format: cell-based, human
Procedure: RA metabolism was quantitatively determined using the microcolumn assay as described previously ([Krekels et al, 1997]). […] Cells were then washed twice with culture medium, harvested and resuspended at 4×10^6 cells ml^−1. An aliquot of this cell suspension (450 μl) was incubated for 90 min in the presence of 0.1 μM [11, 12-^3H(N)]RA, after which 2 ml acetonitrile was added. After centrifugation for 10 min at 780 g, the resulting deproteinized supernatant was acidified with 2.5 ml of 40 mM acetic acid and applied to a 3 ml C18 Bond Elut LRC column (Varian, Harbor City, CA, USA; pretreated with 4 ml distilled water) under a vacuum of 127 mmHg using VAC ELUT SPS-24 and the effluent was collected. The column was eluted with 1 ml 40% acetonitrile and the effluent was collected in the same vial. Radioactivity in the collected effluent, containing the polar metabolites, was determined in a Packard Tri-carb 4530 liquid scintillation analyzer. Optiphase ‘Hi Safe II’ (Wallac, Milton Keynes, UK) was used as a scintillator. Data are presented as mean±s.d. of three or four independent experiments. The IC50-values were calculated by non-linear regression analysis using SigmaPlot 4.01 software.

17,20-lyase (CYP17) = molecular target: T2, 17,20-lyase (CYP17) (Rattus norvegicus, UniProt P11715); assay: 17,20-lyase in rat testicular S10 fraction; format: biochemical
T2 construct: 17,20-lyase (CYP17) in rat testicular S10 fractions; from tissue; host or cells: rat testis, S10 fraction
T2 sequence (P11715 1-507): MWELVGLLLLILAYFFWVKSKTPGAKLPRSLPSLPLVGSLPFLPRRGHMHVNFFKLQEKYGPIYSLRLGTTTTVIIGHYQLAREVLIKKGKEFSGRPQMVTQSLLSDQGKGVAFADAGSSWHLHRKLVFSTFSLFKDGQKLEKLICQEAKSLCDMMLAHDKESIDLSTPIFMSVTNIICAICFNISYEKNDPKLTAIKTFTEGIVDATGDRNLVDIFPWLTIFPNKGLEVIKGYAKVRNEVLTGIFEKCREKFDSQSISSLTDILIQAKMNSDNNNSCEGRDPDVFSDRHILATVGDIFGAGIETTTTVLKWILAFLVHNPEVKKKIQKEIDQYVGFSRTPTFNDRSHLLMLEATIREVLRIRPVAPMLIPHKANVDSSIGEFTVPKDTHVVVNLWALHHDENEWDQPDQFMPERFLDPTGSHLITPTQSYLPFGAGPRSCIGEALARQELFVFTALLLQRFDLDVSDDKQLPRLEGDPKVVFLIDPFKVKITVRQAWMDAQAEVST
Procedure: as §1

## C[C@@H]([C@H](c1ccc(Nc2nc3ccccc3s2)cc1)n1ccnc1)N(C)C [R116010, [S-(R*,R*)]-N-[4-[2-(dimethylamino)-1-(1H-imidazole-1-yl)propyl]-phenyl]-2-benzothiazolamine]
[1]
  growth of orthotopically implanted Dunning R3327/PIF-1 carcinoma cells: inhibit the growth
Lewis lung (3LL) tumours
  growth of subcutaneous mouse Lewis lung (3LL) tumours: inhibit the growth
CYP26A1
  IC50: 4 nM
[2]; Homo sapiens, intact T47D cells pretreated 16 h with 1 μM RA, 0.1 μM [3H]RA, 90 min, read-out: IC50 inhibition of formation of polar [3H]RA metabolites (RA metabolism)
  IC50: 8.7 nM
[2]; intact T47D cells
  fold more potent than liarozole-fumarate as inhibitor of RA metabolism: over 100 fold
17,20-lyase (CYP17)
  IC50: 250 nM
